# Assay results from ChEMBL document CHEMBL1135011, “Isolation and antimalarial activity of peroxydisulfate oxidation products of primaquine” (Bioorg Med Chem Lett, 2002).
# Legend:
# Mus musculus [1] = experiment: Gametocytocidal activity against Plasmodium yoelii infected mice (2) on intraperitoneal dose of 10 mg/kg at 6 hr of mosquito feeding was determined and average of oocyst determined to find infectivity; format: functional
# Mus musculus [2] = experiment: Tested for in vivo gametocytocidal activity against Plasmodium yoelii infected mice (1), on intraperitoneal dose of 10 mg/kg at +24h of mosquito feeding; Activity = No of Oocytes for infectivity; format: functional
# Mus musculus [3] = experiment: Tested for in vivo gametocytocidal activity against Plasmodium yoelii infected mice (1), on intraperitoneal dose of 10 mg/kg at +6h of mosquito feeding; Activity = No of Oocytes for infectivity; format: functional
# Mus musculus [4] = experiment: Gametocytocidal activity against Plasmodium yoelii infected mice (2) on intraperitoneal dose of 10 mg/kg at 24 hr of mosquito feeding was determined and average of oocyst determined to find infectivity; format: functional
# Mus musculus [5] = experiment: Tested for in vivo gametocytocidal activity against Plasmodium yoelii infected mice, on intraperitoneal dose of 10 mg/kg at -1h of mosquito feeding; Activity = No of Oocytes for infectivity; format: functional
# Mus musculus [6] = experiment: Gametocytocidal activity against Plasmodium yoelii infected mice (2) on intraperitoneal dose of 10 mg/kg at -1h of mosquito feeding was determined and average of oocyst determined to find infectivity; format: functional
# Mus musculus [7] = species on record: Mus musculus; experiment: Activity by comparing the number of oocytes on midgets of mosquitoes fed on drug treated on mice (1) with those of insects fed on untreated animals at -1h of mosquito feeding; 18/20; format: functional
# Mus musculus [8] = species on record: Mus musculus; experiment: Activity by comparing the number of oocytes on midgets of mosquitoes fed on drug treated on mice (1) with those of insects fed on untreated animals at 24 hr of mosquito feeding; 10/12; format: functional
# Mus musculus [9] = species on record: Mus musculus; experiment: Activity by comparing the number of oocytes on midgets of mosquitoes fed on drug treated on mice (1) with those of insects fed on untreated animals at 6 hr of mosquito feeding; 16/20; format: functional
# Mus musculus [10] = species on record: Mus musculus; experiment: Activity by comparing the number of oocytes on midgets of mosquitoes fed on drug treated on mice (2) with those of insects fed on untreated animals at -1h of mosquito feeding; 5/15; format: functional
# Mus musculus [11] = species on record: Mus musculus; experiment: Activity by comparing the number of oocytes on midgets of mosquitoes fed on drug treated on mice (2) with those of insects fed on untreated animals at -1h of mosquito feeding; 12/15; format: functional
# Mus musculus [12] = species on record: Mus musculus; experiment: Activity by comparing the number of oocytes on midgets of mosquitoes fed on drug treated on mice (2) with those of insects fed on untreated animals at -1h of mosquito feeding; 13/15; format: functional
# Plasmodium falciparum [13] = experiment: (§1) Effective concentration for gametocidal activity against Plasmodium falciparum FDL-HD; format: functional, organism-based
# Plasmodium falciparum [14] = experiment: (§2) Effective concentration for schizonticidal activity against Plasmodium falciparum FDL-HD; format: functional, organism-based
# Plasmodium falciparum [15] = experiment: as §1; format: functional
# Plasmodium falciparum [16] = experiment: as §2; format: functional
# Mus musculus [17] = experiment: Gametocytocidal activity against Plasmodium yoelii infected mice (3) on intraperitoneal dose of 10 mg/kg at -1h of mosquito feeding was determined and average of oocysts determined to find infectivity; format: functional
# Mus musculus [18] = experiment: Gametocytocidal activity against Plasmodium yoelii infected mice (2) on intraperitoneal dose of 10 mg/kg at -1h of mosquito feeding was determined and average of oocysts determined to find infectivity; format: functional
# Mus musculus [19] = species on record: Mus musculus; experiment: Activity by comparing the number of oocytes on midgets of mosquitoes fed on drug treated on 1 mice with those of insects fed on untreated animals at -1h of mosquito feeding; 15/15; format: functional
# Mus musculus [20] = species on record: Mus musculus; experiment: Activity by comparing the number of oocytes on midgets of mosquitoes fed on drug treated on 1 mice with those of insects fed on untreated animals at 24 hr of mosquito feeding; 0/20; format: functional
# Mus musculus [21] = species on record: Mus musculus; experiment: Activity by comparing the number of oocytes on midgets of mosquitoes fed on drug treated on 1 mice with those of insects fed on untreated animals at 6 hr of mosquito feeding; 0/20; format: functional
# Mus musculus [22] = species on record: Mus musculus; experiment: Activity by comparing the number of oocytes on midgets of mosquitoes fed on drug treated on mice (2) with those of insects fed on untreated animals at -1h of mosquito feeding; 16/20; format: functional
# Mus musculus [23] = species on record: Mus musculus; experiment: Activity by comparing the number of oocytes on midgets of mosquitoes fed on drug treated on mice (2) with those of insects fed on untreated animals at 24 hr of mosquito feeding; 0/20; format: functional
# Mus musculus [24] = species on record: Mus musculus; experiment: Activity by comparing the number of oocytes on midgets of mosquitoes fed on drug treated on mice (2) with those of insects fed on untreated animals at 6 hr of mosquito feeding; 0/20; format: functional
# Mus musculus [25] = species on record: Mus musculus; experiment: Activity by comparing the number of oocytes on midgets of mosquitoes fed on drug treated on mice (3) with those of insects fed on untreated animals at -1h of mosquito feeding; 8/11; format: functional
# Mus musculus [26] = species on record: Mus musculus; experiment: Activity by comparing the number of oocytes on midgets of mosquitoes fed on drug treated on mice (3) with those of insects fed on untreated animals at 6 hr of mosquito feeding; 0/10; format: functional
# Mus musculus [27] = species on record: Mus musculus; experiment: Activity by comparing the number of oocytes on midgets of mosquitoes fed on drug treated on 1 mice with those of insects fed on untreated animals at -1h of mosquito feeding; 18/20; format: functional
compound,measurement,setting,value
COc1cc(NC(C)CCCN)c2ncccc2c1-c1c(OC)cc(NC(C)CCCN)c2ncccc12 (stereo unspecified),Activity,Mus musculus [1],221.3
same,Activity,Mus musculus [2],>300
same,Activity,Mus musculus [3],>300
same,Activity,Mus musculus [4],68.33
same,Activity,Mus musculus [5],>300
same,Activity,Mus musculus [6],260.3
same,Ratio,Mus musculus [7],18
same,Ratio,Mus musculus [8],10
same,Ratio,Mus musculus [9],16
same,Ratio,Mus musculus [10],5
same,Ratio,Mus musculus [11],12
same,Ratio,Mus musculus [12],13
same,IC50,Plasmodium falciparum [13],0.036 ug well-1
same,IC50,Plasmodium falciparum [14],0.031 ug well-1
same,IC90,Plasmodium falciparum [15],0.062 ug well-1
same,IC90,Plasmodium falciparum [16],0.19 ug well-1
COc1cc(NC(C)CCCN)c2ncccc2c1NC(C)CCCN (stereo unspecified),Activity,Mus musculus [17],185
same,Activity,Mus musculus [18],240
same,Activity,Mus musculus [5],315
same,Ratio,Mus musculus [19],15
same,Ratio,Mus musculus [20],0
same,Ratio,Mus musculus [21],0
same,Ratio,Mus musculus [22],16
same,Ratio,Mus musculus [23],0
same,Ratio,Mus musculus [24],0
same,Ratio,Mus musculus [25],8
same,Ratio,Mus musculus [26],0
same,IC50,Plasmodium falciparum [13],0.026 ug well-1
same,IC50,Plasmodium falciparum [14],0.046 ug well-1
same,IC90,Plasmodium falciparum [15],0.055 ug well-1
same,IC90,Plasmodium falciparum [16],0.235 ug well-1
COc1c(O)c(NC(C)CCCN)c2ncccc2c1-c1c(OC)c(O)c(NC(C)CCCN)c2ncccc12 (stereo unspecified),IC50,Plasmodium falciparum [13],> 150 ug well-1
same,IC50,Plasmodium falciparum [14],0.49 ug well-1
same,IC90,Plasmodium falciparum [15],>150 ug well-1
same,IC90,Plasmodium falciparum [16],1.75 ug well-1
CC(CCCN)N(C(C)CCCN)C(C)CCCN (stereo unspecified),IC50,Plasmodium falciparum [13],0.115 ug well-1
same,IC50,Plasmodium falciparum [14],0.155 ug well-1
same,IC90,Plasmodium falciparum [15],0.38 ug well-1
same,IC90,Plasmodium falciparum [16],0.245 ug well-1
CC(CCCN)Nc1c(O)c(O)c(NC(C)CCCN)c2ncccc12 (stereo unspecified),IC50,Plasmodium falciparum [13],> 150 ug well-1
same,IC50,Plasmodium falciparum [14],> 50 ug well-1
same,IC90,Plasmodium falciparum [15],>150 ug well-1
same,IC90,Plasmodium falciparum [16],>50 ug well-1
CCN(CC)CCCC(C)Nc1ccnc2cc(Cl)ccc12 (stereo unspecified) [CHLOROQUINE],IC50,Plasmodium falciparum [14],0.011 ug well-1
same,IC90,Plasmodium falciparum [16],0.015 ug well-1
COc1cc(NC(C)CCCN)c2ncccc2c1 (stereo unspecified) [PRIMAQUINE],Activity,Mus musculus [5],280.7
same,Ratio,Mus musculus [27],18
same,Ratio,Mus musculus [20],0
same,Ratio,Mus musculus [21],0
same,IC50,Plasmodium falciparum [13],0.115 ug well-1
same,IC90,Plasmodium falciparum [15],0.38 ug well-1
